Data as given in ChEMBL document CHEMBL1152063, “4-Substituted proline derivatives that inhibit angiotensin converting enzyme and neutral endopeptidase 24.11” (Bioorg Med Chem Lett, 1994).

Experiments:
[1] = target: Angiotensin-converting enzyme (Homo sapiens, UniProt P12821); test: In vitro inhibition against angiotensin converting enzyme (ACE)
Neprilysin = target: T1, Neprilysin (Rattus norvegicus, UniProt P07861); test: In vitro inhibition against neutral endopeptidase 24.11 (NEP) in rat kidney cortex membrane; format: cell membranes
T1 sequence (P07861 whole entry): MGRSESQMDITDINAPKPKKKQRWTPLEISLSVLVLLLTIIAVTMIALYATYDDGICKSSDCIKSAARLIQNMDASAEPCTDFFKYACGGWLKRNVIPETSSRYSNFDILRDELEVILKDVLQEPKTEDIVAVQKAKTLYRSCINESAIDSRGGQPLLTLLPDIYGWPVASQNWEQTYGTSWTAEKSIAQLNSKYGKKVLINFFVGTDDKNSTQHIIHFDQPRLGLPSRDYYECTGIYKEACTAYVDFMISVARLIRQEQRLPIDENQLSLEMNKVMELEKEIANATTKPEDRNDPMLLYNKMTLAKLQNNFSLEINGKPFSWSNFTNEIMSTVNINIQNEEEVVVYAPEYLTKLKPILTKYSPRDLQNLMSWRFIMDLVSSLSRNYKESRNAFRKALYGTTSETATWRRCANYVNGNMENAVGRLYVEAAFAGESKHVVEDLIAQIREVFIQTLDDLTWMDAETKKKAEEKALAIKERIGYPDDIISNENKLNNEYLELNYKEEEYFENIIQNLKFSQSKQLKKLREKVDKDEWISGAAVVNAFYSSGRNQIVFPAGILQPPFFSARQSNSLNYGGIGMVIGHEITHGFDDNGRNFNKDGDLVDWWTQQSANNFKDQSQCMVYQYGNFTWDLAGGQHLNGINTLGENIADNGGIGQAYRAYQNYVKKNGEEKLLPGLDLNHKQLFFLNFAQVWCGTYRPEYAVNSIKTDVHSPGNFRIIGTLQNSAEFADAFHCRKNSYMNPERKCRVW

Chain of Angiotensin-converting enzyme (P12821 whole entry): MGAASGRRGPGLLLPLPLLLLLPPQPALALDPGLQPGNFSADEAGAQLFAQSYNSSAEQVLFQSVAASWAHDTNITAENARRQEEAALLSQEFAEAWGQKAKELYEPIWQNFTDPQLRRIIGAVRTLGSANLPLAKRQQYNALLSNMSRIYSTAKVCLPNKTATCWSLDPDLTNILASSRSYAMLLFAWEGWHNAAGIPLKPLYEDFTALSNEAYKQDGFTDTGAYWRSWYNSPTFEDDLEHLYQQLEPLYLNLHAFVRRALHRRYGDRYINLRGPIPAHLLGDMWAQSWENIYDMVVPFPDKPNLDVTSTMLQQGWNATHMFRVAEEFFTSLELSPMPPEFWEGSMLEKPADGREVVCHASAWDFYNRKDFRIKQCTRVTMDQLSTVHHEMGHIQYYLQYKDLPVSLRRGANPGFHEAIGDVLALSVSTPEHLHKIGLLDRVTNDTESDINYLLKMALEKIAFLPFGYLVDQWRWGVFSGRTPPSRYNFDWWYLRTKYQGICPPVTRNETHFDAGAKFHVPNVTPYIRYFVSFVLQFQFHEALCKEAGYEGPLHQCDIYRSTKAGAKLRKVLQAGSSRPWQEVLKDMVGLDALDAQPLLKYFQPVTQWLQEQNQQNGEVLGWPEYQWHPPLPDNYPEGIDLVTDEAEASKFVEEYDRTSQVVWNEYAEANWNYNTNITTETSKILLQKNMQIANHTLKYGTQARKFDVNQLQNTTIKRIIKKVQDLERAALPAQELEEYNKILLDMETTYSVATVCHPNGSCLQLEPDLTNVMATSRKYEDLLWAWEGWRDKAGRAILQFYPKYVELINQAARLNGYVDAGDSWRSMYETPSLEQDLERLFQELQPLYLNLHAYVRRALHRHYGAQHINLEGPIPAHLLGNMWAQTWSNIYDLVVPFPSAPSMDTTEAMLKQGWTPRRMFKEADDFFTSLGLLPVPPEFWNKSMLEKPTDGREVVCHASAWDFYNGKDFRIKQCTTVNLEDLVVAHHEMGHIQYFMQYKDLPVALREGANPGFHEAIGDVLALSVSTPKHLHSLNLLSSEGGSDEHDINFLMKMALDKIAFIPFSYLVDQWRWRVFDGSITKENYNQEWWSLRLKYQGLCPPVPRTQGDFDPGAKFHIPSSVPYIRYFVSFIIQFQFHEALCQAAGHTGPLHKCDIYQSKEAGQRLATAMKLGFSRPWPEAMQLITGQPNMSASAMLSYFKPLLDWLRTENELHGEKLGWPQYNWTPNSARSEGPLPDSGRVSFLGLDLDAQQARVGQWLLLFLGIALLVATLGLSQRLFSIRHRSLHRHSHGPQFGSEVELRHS

SMILES | IC50 [1] [nM] | IC50 (Neprilysin) [nM] | Ki (Neprilysin) [nM]
O=C(O)CCCCCCNC(=O)C(CS)Cc1ccccc1 (configuration not stated) |  |  | 26
C[C@H](CS)C(=O)N1C[C@@H](NC(=O)NC(CS)Cc2ccccc2)C[C@H]1C(=O)O (some centres not stated) | 147 | 118 | 
C[C@H](N[C@@H](CCc1ccccc1)C(=O)O)C(=O)N1C[C@H](OC(=O)NC(CS)Cc2ccccc2)C[C@H]1C(=O)O (some centres not stated) | 506 | > 1000 | 
C[C@H](N[C@@H](CCc1ccccc1)C(=O)O)C(=O)N1C[C@H](NC(=O)C(CS)Cc2ccccc2)C[C@H]1C(=O)O (some centres not stated) | 253 | > 1000 | 
C[C@H](CS)C(=O)N1C[C@@H](NC(=O)C(CS)Cc2ccc(-c3ccccc3)cc2)C[C@H]1C(=O)O (some centres not stated) | 696 | 20 | 

Continued by falling IC50 [1], values first:

IC50 [1] [nM] | IC50 (Neprilysin) [nM] | Ki (Neprilysin) [nM] | SMILES
87 | 14 |  | C[C@H](CS)C(=O)N1C[C@@H](NC(=O)C(CS)Cc2ccccc2)C[C@H]1C(=O)O (some centres not stated)
43 | 1240 |  | C[C@H](N[C@@H](CCc1ccccc1)C(=O)O)C(=O)N1C[C@@H](NC(=O)NC(CS)Cc2ccccc2)C[C@H]1C(=O)O (some centres not stated)
42 | 149 |  | C[C@H](N[C@@H](CCc1ccccc1)C(=O)O)C(=O)N1C[C@@H](NC(=O)C(CS)Cc2ccccc2)C[C@H]1C(=O)O (some centres not stated)
18 | 849 |  | C[C@H](CS)C(=O)N1C[C@H](NC(=O)C(CS)Cc2ccccc2)C[C@H]1C(=O)O (some centres not stated)
